The text below walks through data of patent US20140023589A1, “FRMD4A ANTAGONISTS AND THEIR USES” (CANCER RESEARCH TECHNOLOGY LIMITED, priority 2011, published 2014).

Entries after “also recorded” stand apart in the source; their conditions may differ.

For data set [1], the system named is SCC13 cells. The data set is described as follows: SCC13 cells grown in the presence of 17-DMAG in vitro. In kind it is cell-based, human. The conditions noted are these: range of concentrations.
Another data set deals with SCC25 tongue xenograft. The data set is described as follows: SCC25 tongue xenograft, 17-DMAG treatment. In kind it is in vivo, mouse. The conditions noted are these: weekly i.p. injections, compared to vehicle control. The method, then:
(§1) All mice used were NOD.Cg-Prkdc^scid I12rg^tm1Wj1/SzJ or NOD/SCID Gamma (NSG) as they are commonly known. Mice were originally purchased from the Jackson Laboratories (Maine, USA) and then bred in-house. Experiments were subject to Cancer Research UK ethical review and were performed under the terms of a U.K. Government Home Office license. Tongue xenografts were carried out using inhalation anaesthesia and injection into the mucosa with a 30 g needle and 1 ml syringe. Mice were grafted using inhalation anaesthesia. An area of skin on the back of each mouse was shaved and cleaned with a betadine solution. Using a 6 mm punch biopsy punch a full thickness wound was created, into which the silicone chamber was inserted and stapled in place. A preparation of cells could then be injected into the chamber. After one week the top of the silicone chamber was cut off to allow the tumour to develop exposed to the normal skin-air interface. After a further week the whole silicone chamber was carefully removed. Mice were scanned with the Xenogen IVIS following an i.p. injection of luciferin (10 μl/g).
Mice were tongue grafted with 1×10E5 SCC25 cells. After one week an initial measurement was made with the Xenogen IVIS. Following this, each mouse was i.p injected with either 17-DMAG or vehicle control. […]

Data set [2] deals with normal human keratinocytes. The data set is described as follows: Induced differentiation of normal human keratinocytes. In kind it is cell-based. An excerpt:
To determine the expression of FRMD4A mRNA in normal human skin we carried out in-situ hybridisations on normal human foreskin. […] Using the Zeiss PALM Laser Capture Microdissection system, samples were collected separately from the basal and granular layers of human abdomen skin sections. […] Levels of FRMD4A were contrary to this, with high levels in the less differentiated basal layer, which dropped to almost nothing in the more differentiated granular layer (FIG. 1B). Similarly, normal human keratinocytes grown in serum free culture were induced to differentiate, by the addition of AG1478 and BMP2/7 (FIG. 1C). Differentiation of the keratinocytes was confirmed by increased levels of transglutaminase in the presence of these agents alone compared to treatment with vehicle alone. Addition of both together led to expression of even higher levels of the differentiation marker TG-1. FRMD4A levels were high in the vehicle treated sample, but became barely detectable in the differentiated samples (FIG. 1C) showing that FRMD4A is associated with less differentiated cell types.

The conditions of data set [3]: injection in the skin and knee joint; cited from earlier work.
For the next data set, the system named is CD44 and FRMD4A staining. The data set is described as follows: Immunostaining of cells grown on HA coated coverslips. The class given is cell-based, human.
For data set [4], the system named is SCC13 back skin xenograft. The data set is described as follows: SCC13 back skin xenograft, hyaluronic acid treatment. The class given is in vivo, mouse. The method, then:
as §1
Mice were grafted into the back skin with 1×10E6 SCC13 cells.
After one week an initial measurement was made with the Xenogen IVIS. Following this, each mouse was directly injected into the tumour with 200 μl of 0.1% HA. […]

Data set [5] relates to SCC13 cells. The data set is described as follows: Colony forming assay, SCC13. The class given is cell-based, human. The note with it: plates coated with HA. The protocol: For colony forming assays, 100 cells were plated in triplicate in 10 cm plates. After 14 days, cultures were fixed and stained with 1% rhodamine B and 1% Nile blue (Acros Organic). Colony-forming efficiency was defined as the percentage of plated cells that formed a colony of three or more cells.

For another data set, the system named is SCC cells. Description: Incucyte timelapse growth of SCC cells (cell line not specified). The class given is cell-based, human. The note with it: SCCs cultured on HA coated plates. The protocol: For Incucyte assays, 1000 cells were plated in triplicate for each condition, in a 48-well plate. Plates were imaged every 3 hours for 7 days.
Having established that FRMD4A has a functional role in SCC proliferation and tumour growth and that it is also modulating the differentiation of such cells, in part perhaps via cancer stem cells and is a key mediator of the Hippo pathway control in SCCs, the present inventors recognised that FRMD4A represents a potential target for therapeutic options. Currently many targeted antibody therapies are in clinical use or undergoing trials to determine their efficacy in the treatment of several malignant and non-malignant diseases. To test if any of the generated antibodies developed against FRMD4A may have a blocking effect on SCCs, the antibodies were added to cells grown in the Incucyte timelapse imaging system.

As for `CO[C@H]1/C=C\C=C(/C)C(=O)NC2=CC(=O)C(NCCN(C)C)=C(C[C@@H](C)C[C@H](OC)[C@H](O)[C@@H](C)/C=C(\C)[C@@H]1OC(N)=O)C2=O` [17-DMAG, 17-Dimethylaminoethylamino-17-demethoxygeldanamycin], the “killing of cells in vitro” value in the data set with SCC13 cells [1] was “readily killed over a range of concentrations; also recorded: dramatic effect”. Besides, in the data set on SCC25 tongue xenograft, the progression of tumours entry was “slower progression of their tumours”.

As to `COc1cc2ncnc(Nc3cccc(Cl)c3)c2cc1OC` [AG1478], the FRMD4A levels entry in data set [2] was “downregulation of FRMD4A levels”. Besides, in data set [2] (differentiation marker), the TG1 levels entry is recorded as “upregulation of TG1 levels”.

Consider hyaluronic acid [HA], for which the toxic effects entry in data set [3] was “no apparent toxic effects”. In the data set with CD44 and FRMD4A staining, the CD44 staining result is listed as “increase in CD44 staining” and the “nuclear FRMD4A staining” value was “loss of nuclear FRMD4A staining”. Also, the survival result in data set [4] (HA injection of xenograft tumours) is “increased survival”. In data set [4] (weekly intra-tumour injection, compared with PBS), the tumour growth rate entry is reported as “reduced growth rate; also recorded: reduced the growth of the tumour”. Besides, in the data set with SCC13 cells [5], the average colony area entry is recorded as “reduction in average colony area”, the “average colony staining intensity” value is reported as “reduction” and the colony forming efficiency result is “reduction in colony forming efficiency”. In addition, the overall growth rate entry in the data set on SCC cells is listed as “decrease in growth rate; also recorded: reduces the growth of SCCs”.
